From US20180002288A1, “USE OF PICOLINAMIDES AS FUNGICIDES” (DOW AGROSCIENCES LLC, priority 2014, published 2018)
Like-named read-outs stand apart in the source and are kept apart here.

What was measured:
Phakopsora pachyrhizi = experiment: Asian Soybean Rust fungicidal activity (PHAKPA); settings: Phakopsora pachyrhizi, in Glycine max
Zymoseptoria tritici = experiment: Leaf Blotch of Wheat fungicidal activity (SEPTTR); assay type: in vivo; settings: Low Volume Cereal Activity at 121.5 g/Ha
Venturia inaequalis = experiment: Apple Scab fungicidal activity (VENTIN); assay type: in vivo; settings: 24 h, high volume, 1 Day Protectant, read-out: VENTIN % Control rating
Protocol: All fungicides were evaluated using the aforementioned method for their activity vs. all target diseases, unless stated otherwise. Wheat leaf blotch and brown rust activity were also evaluated using track spray applications, in which case the fungicides were formulated as EC formulations, containing 0.1% Trycol 5941 in the spray solutions. Wheat plants (variety Yuma) were grown from seed in a greenhouse in 50% mineral soil/50% soil-less Metro mix until the first leaf was fully emerged, with 7-10 seedlings per pot. These plants were inoculated with an aqueous spore suspension of Zymoseptoria tritici either prior to or after fungicide treatments. After inoculation the plants were kept in 100% relative humidity (one day in a dark dew chamber followed by two to three days in a lighted dew chamber at 20° C.) to permit spores to germinate and infect the leaf. The plants were then transferred to a greenhouse set at 20° C. for disease to develop. When disease symptoms were fully expressed on the 1st leaves of untreated plants, infection levels were assessed on a scale of 0 to 100 percent disease severity. Percent disease control was calculated using the ratio of disease severity on treated plants relative to untreated plants. […] Seedlings with two expanding young leaves at the top (older leaves at bottom of the plants were trimmed) were used in the test. Plants were inoculated with a spore suspension of Venturia inaequalis 24 hr after fungicide treatment and kept in a 22° C. dew chamber with 100% relative humidity for 48 hr, and then moved to a greenhouse set at 20° C. for disease to develop. Fungicide formulation, application and disease assessment on the sprayed leaves followed the procedures as described in the Example A.

Rhyncosporium secalis = experiment: Barley Scald fungicidal activity (RHYNSE); assay type: in vivo; settings: Hordeum vulgare, 24 h, high volume, 1 Day Protectant, read-out: RHYNSE % Control rating
Protocol: All fungicides were evaluated using the aforementioned method for their activity vs. all target diseases, unless stated otherwise. Wheat leaf blotch and brown rust activity were also evaluated using track spray applications, in which case the fungicides were formulated as EC formulations, containing 0.1% Trycol 5941 in the spray solutions. Wheat plants (variety Yuma) were grown from seed in a greenhouse in 50% mineral soil/50% soil-less Metro mix until the first leaf was fully emerged, with 7-10 seedlings per pot. These plants were inoculated with an aqueous spore suspension of Zymoseptoria tritici either prior to or after fungicide treatments. After inoculation the plants were kept in 100% relative humidity (one day in a dark dew chamber followed by two to three days in a lighted dew chamber at 20° C.) to permit spores to germinate and infect the leaf. The plants were then transferred to a greenhouse set at 20° C. for disease to develop. When disease symptoms were fully expressed on the 1st leaves of untreated plants, infection levels were assessed on a scale of 0 to 100 percent disease severity. Percent disease control was calculated using the ratio of disease severity on treated plants relative to untreated plants. Barley seedlings (variety Harrington) were propagated in soil-less Metro mix, with each pot having 8 to 12 plants, and used in the test when first leaf was fully emerged. Test plants were inoculated by an aqueous spore suspension of Rhyncosporium secalis 24 hr after fungicide treatments. After inoculation the plants were kept in a dew room at 22° C. with 100% relative humidity for 48 hr. The plants were then transferred to a greenhouse set at 20° C. for disease to develop. Fungicide formulation, application and disease assessment on the sprayed leaves followed the procedures as described in the Example A.

Puccinia triticina = experiment: Wheat Brown Rust fungicidal activity (PUCCRT); assay type: in vivo; settings: Low Volume Cereal Activity at 121.5 g/Ha
[1] = 24 h, read-out: PHAKPA 1DP % Control rating, soybean, high volume, 25 ppm, 1 Day Protectant
[2] = 72 h, read-out: PHAKPA 3DC % Control rating, soybean, high volume, 25 ppm, 3 Day Curative
[3] = 24 h, 1 Day Protectant, read-out: SEPTTR 1DP (Wheat Leaf Blotch, 1 Day Protectant)
[4] = 72 h, 3 Day Curative, read-out: SEPTTR 3DC (Wheat Leaf Blotch, 3 Day Curative)
[5] = 24 h, 1 Day Protectant, read-out: PUCCRT 1DP (Wheat Brown Rust, 1 Day Protectant)
[6] = 72 h, 3 Day Curative, read-out: PUCCRT 3DC (Wheat Brown Rust, 3 Day Curative)

Row | Structure (SMILES) | pest or weed control at 25 ppm (Phakopsora pachyrhizi; [1]) | pest or weed control at 25 ppm (Phakopsora pachyrhizi; [2]) | pest or weed control at 121.5 g/ha (Zymoseptoria tritici; [3]) | pest or weed control at 121.5 g/ha (Zymoseptoria tritici; [4]) | pest or weed control at 100 ppm (Venturia inaequalis) | pest or weed control at 100 ppm (Rhyncosporium secalis) | pest or weed control at 121.5 g/ha (Puccinia triticina; [5]) | pest or weed control at 121.5 g/ha (Puccinia triticina; [6])
1 | COc1ccnc(C(=O)N[C@@H](C)C(=O)O[C@@H](C)[C@H](Oc2ccccc2)c2ccccc2)c1OCOC(C)=O [Example 183] | < 80% | < 80% | > 80% | > 80% | < 80% | > 80% | > 80% | > 80%
2 | COc1ccnc(C(=O)N[C@@H](C)C(=O)O[C@@H](C)C(Oc2ccc(F)cc2)c2ccccc2)c1OC(C)=O (some centres unmarked) [Example 236] | > 80% | < 0% | > 80% | > 80% | > 80% | > 80% | > 80% | > 80%
3 | COc1ccnc(C(=O)N[C@@H](C)C(=O)O[C@@H](C)[C@H](Oc2ccccc2)c2ccc(C)cc2)c1OCOC(C)=O [Example 252] |  |  | > 80% | > 80% | < 80% | > 80% | > 80% | > 80%
4 | COc1ccnc(C(=O)N[C@@H](C)C(=O)O[C@@H](C)[C@H](Oc2ccccc2)c2ccc(F)cc2C)c1OCOC(C)=O [Example 259] | > 80% | < 0% | > 80% | > 80% | < 80% | > 80% | > 80% | > 80%
5 | COc1ccnc(C(=O)N[C@@H](C)C(=O)O[C@@H](C)[C@H](Oc2cccc(F)c2)c2ccccc2)c1OCOC(C)=O [Example 187] | > 80% | < 80% | > 80% | > 80% |  | > 80% | > 80% | > 80%
6 | COc1ccnc(C(=O)N[C@@H](C)C(=O)O[C@@H](C)[C@H](Oc2ccccc2Cl)c2ccccc2)c1OC(C)=O [Example 205] | < 80% | < 80% | > 80% | > 80% |  | < 80% | > 80% | > 80%
7 | COc1ccnc(C(=O)N[C@@H](C)C(=O)O[C@@H](C)[C@H](Oc2cccc(Cl)c2)c2ccccc2)c1OCOC(C)=O [Example 202] | > 80% | < 80% | > 80% | > 80% |  | < 0% | > 80% | < 80%
8 | COc1ccnc(C(=O)N[C@@H](C)C(=O)O[C@@H](C)[C@H](Oc2ccccc2)c2ccc(F)cc2F)c1OCOC(C)=O [Example 250] | > 80% | < 80% | > 80% | > 80% |  | < 80% | > 80% | > 80%
9 | COc1cc(F)ccc1[C@@H](Oc1ccccc1)[C@H](C)OC(=O)[C@H](C)NC(=O)c1nccc(OC)c1OCOC(C)=O [Example 256] | > 80% | < 0% | > 80% | > 80% |  | > 80% | > 80% | > 80%
10 | COc1ccnc(C(=O)N[C@@H](C)C(=O)O[C@@H](C)[C@H](Oc2ccccc2)c2ccc(F)cc2Cl)c1OCOC(C)=O [Example 260] | > 80% | < 80% | > 80% | > 80% | < 80% | > 80% | > 80% | > 80%
11 | COc1ccnc(C(=O)N[C@@H](C)C(=O)O[C@@H](C)[C@H](Oc2cc(F)cc(Cl)c2)c2ccccc2)c1OC(C)=O [Example 207] | < 80% | < 80% | > 80% | > 80% | > 80% | > 80% | > 80% | < 80%
12 | COc1ccnc(C(=O)N[C@@H](C)C(=O)O[C@@H](C)[C@H](Oc2ccc(F)cc2)c2ccccc2)c1OCOC(C)=O [Example 237] | < 80% | < 80% | > 80% | > 80% | < 80% | > 80% | > 80% | > 80%
13 | COc1ccnc(C(=O)N[C@@H](C)C(=O)O[C@@H](C)[C@H](Oc2ccc(F)cc2)c2ccccc2)c1OC(C)=O [Example 235] | < 80% | < 80% | > 80% | > 80% | < 80% | > 80% | > 80% | > 80%
14 | COc1ccnc(C(=O)N[C@@H](C)C(=O)O[C@@H](C)[C@H](Oc2ccccc2)c2ccc3ccccc3c2)c1OCOC(C)=O [Example 263] |  |  | > 80% | > 80% | < 80% | > 80% | > 80% | > 80%
15 | COc1ccccc1[C@@H](Oc1ccccc1)[C@H](C)OC(=O)[C@H](C)NC(=O)c1nccc(OC)c1OCOC(C)=O [Example 255] | > 80% | < 0% | > 80% | > 80% | < 80% | < 80% | > 80% | > 80%
16 | COc1ccnc(C(=O)N[C@@H](C)C(=O)O[C@@H](C)C(Oc2ccc(F)cc2)c2ccc(F)cc2)c1OCOC(C)=O (some centres unmarked) [Example 238] | < 80% | < 80% | > 80% | > 80% | > 80% | > 80% | > 80% | > 80%
